The numbers were not newly measured in patent US10842882B2, “Amatoxin-antibody conjugates” ([…] GMBH, priority 2015, dated 2020), which cites them from elsewhere.

For the series, the target named is RNA-polymerase II (Homo sapiens, UniProt P24928). The settings on record: amanitin/RNA-polymerase II complex, background statement.

In general, Kd refers to the equilibrium constant for the complex coming apart. As to amanitin, the Kd is 3 nM.
